# Key:
# Format in all cases: cell-based
# Microsporum canis = experiment: Antifungal activity in vitro, resazurin growth inhibition: Microsporum canis (B68128)
# Experimental: (§1) The standard susceptibility screen is performed in 96-well plates (U-bottom, Greiner Bio-One). Serial dilutions (2-fold or 4-fold) of 20 mM compound stock solutions are made in 100% DMSO, followed by an intermediate dilution step in water. These serial dilutions (10 μl) are then spotted onto test-plates that can be stored in the dark at 4° C. for a maximum period of 2 weeks. An adequate broad dose-range is included with 64 μM as the highest in-test concentration. The culture medium RPMI-1640 is supplemented with L-glutamine, 2% glucose and buffered with 3-(N-morpholino)-propanesulfonic acid (MOPS) at pH 7.0±0.1.
# (§2) The different fungal species/isolates (Table 3a) are cryopreserved and 1/1000 diluted in medium just prior to use. A standard inoculum of 200 μl containing 10^3 colony-forming unit (cfu) is then added to each well. A positive control (100% growth=fungal culture without antifungal) and a negative control (0% growth ═RPMI-MOPS medium) are included on each plate. Optimal incubation time and temperature are dependent on the fungal species and vary from 24 h for yeasts (37° C.) to one week or more for dermatophytes (27° C.). Inhibition of fungal growth is measured after adding 10 μl of 0.005% (w/v) resazurin (Sigma Aldrich) to each well, based on the principle that living cells convert the non-fluorescent blue resazurin into the pink and fluorescent resorufin, allowing fluorimetric reading (λex 550 nm and λem 590 nm) after an additional incubation period (‘resa’ time mentioned in Table 3a).
# Aspergillus fumigatus = experiment: Antifungal activity in vitro, resazurin growth inhibition: Aspergillus fumigatus (B42928)
# Experimental: as §1, §2
# Cryptococcus neoformans = experiment: Antifungal activity in vitro, resazurin growth inhibition: Cryptococcus neoformans (B66663)
# Experimental: as §1, §2
# Sporothrix schenkii = experiment: Antifungal activity in vitro, resazurin growth inhibition: Sporothrix schenkii (B62482)
# Experimental: as §1, §2
# Candida parapsilosis = experiment: Antifungal activity in vitro, resazurin growth inhibition: Candida parapsilosis (B66126)
# Experimental: as §1, §2
# [1] = system: Trichophyton mentagrophytes; experiment: Antifungal activity in vitro, resazurin growth inhibition: Trichophyton mentagrophytes (B70554)
# Experimental: as §1, §2
# Trichophyton rubrum = experiment: Antifungal activity in vitro, resazurin growth inhibition: Trichophyton rubrum (B68183)
# Experimental: as §1, §2
SMILES,"Inf. B: Microsporum canis B68128, pIC50 (Microsporum canis)","Inf. E: Aspergillus fumigatus B42928, pIC50 (Aspergillus fumigatus)","Inf. F: Cryptococcus neoformans B66663, pIC50 (Cryptococcus neoformans)","Inf. A: Sporothrix schenkii B62482, pIC50 (Sporothrix schenkii)","Inf. D: Candida parapsilosis B66126, pIC50 (Candida parapsilosis)","Inf. G: Trichophyton mentagrophytes B70554, pIC50 [1]","Inf. C: Trichophyton rubrum B68183, pIC50 (Trichophyton rubrum)"
Cc1ncc(C2=NCc3c(C)cccc3-n3cccc32)cn1 [Compound 99],5.10,<4.19,<4.19,<4.19,<4.19,<4.19,4.89
Cc1ccc2cc(C3=NCc4c(Cl)cc(Cl)cc4-n4cccc43)oc2c1 [Compound 139],4.46,<4.19,<4.19,<4.19,<4.19,<4.19,4.40
Cl.c1ccc2c(c1)CNC(c1cc3ccccc3o1)c1cccn1-2 (racemic) [Compound 29],5.30,<4.19,4.80,<4.19,<4.19,5.30,5.70
Cc1cccc2c1-n1cccc1C(c1cc3ccccc3o1)NC2.Cl (racemic) [Compound 33],5.22,<4.19,4.38,<4.19,<4.19,4.98,4.49
Cc1cccc2c1CNC(c1cc3ccccc3o1)c1cccn1-2.Cl (racemic) [Compound 32],5.70,<4.19,4.39,4.35,<4.19,5.70,6.10
CCc1nc(C2=NCc3c(Cl)cccc3-n3cccc32)cs1 [Compound 64],5.42,<4.19,4.70,<4.19,<4.19,5.94,5.46
Cc1ccc2cc(C3NCc4c(Cl)cccc4-n4cccc43)oc2c1.Cl (racemic) [Compound 39],5.52,5.52,<4.19,5.52,<4.19,5.15,5.15
Cl.Fc1ccc2oc(C3NCc4ccc(Cl)cc4-n4cccc43)cc2c1 (racemic) [Compound 48],4.30,<4.19,4.84,<4.19,<4.19,<4.19,5.39
Cl.FC(F)(F)c1ccc(C2NCc3c(Cl)cccc3-n3cccc32)cn1 (racemic) [Compound 16],5.19,<4.19,4.64,<4.19,<4.19,5.28,5.69
Cc1ccc2cc(C3NCc4c(Cl)cc(Cl)cc4-n4cccc43)oc2c1.Cl (racemic) [Compound 41],<4.19,<4.19,<4.19,<4.19,<4.19,<4.19,4.80
CCc1ccc(C2=NCc3c(Cl)cc(Cl)cc3-n3cccc32)nc1 [Compound 73],5.10,<4.49,<4.49,<4.49,<4.49,<4.49,6.09
Cc1ccc2cc(C3=NCc4c(F)cccc4-n4cccc43)ccc2n1 [Compound 113],<4.19,<4.19,<4.19,<4.19,<4.19,<4.19,5.86
CCc1ccc(C2=NCc3c(Cl)cccc3-n3cccc32)nc1 [Compound 72],5.61,<4.49,<4.49,<4.49,<4.49,<4.49,6.05
Cl.Clc1cccc2c1CNC(c1ccc3scc(Cl)c3c1)c1cccn1-2 (racemic) [Compound 58],5.08,4.48,4.58,<4.19,<4.19,5.09,6.29
Cc1ncc(C2NCc3c(Cl)cccc3-n3cccc32)cn1.Cl (racemic) [Compound 25],4.43,<4.19,<4.19,<4.19,<4.19,<4.19,4.19
Cc1ccc2cc(C3=NCc4c(F)cc(F)cc4-n4cccc43)ccc2n1 [Compound 114],<4.19,<4.19,<4.19,<4.19,<4.19,<4.19,5.75
Cl.Fc1ccc2oc(C3NCc4c(Cl)cc(Cl)cc4-n4cccc43)cc2c1 (racemic) [Compound 49],4.82,<4.19,<4.19,<4.80,<4.19,<4.19,5.28
Cl.FC(F)(F)c1ncc(C2NCc3c(Cl)cccc3-n3cccc32)cn1 (racemic) [Compound 26],4.92,<4.19,<4.19,<4.19,<4.19,4.44,5.10

# Reference: patent US9493468B2, “Antifungal 5,6-dihydro-4H-pyrrolo[1,2-a][1,4]benzo-diazepines and 6H-pyrrolo[1,2-a][1,4]benzodiazepines substituted with heterocyclic derivatives” (Janssen Pharmaceutica NV, priority 2011, dated 2016)
